According to US8143273B2, “Quinolizidine and indolizidine derivatives” (Hoffman-La Roche Inc., priority 2010, dated 2012):

Each compound was assayed against T1, mGlyT-1b (Mus musculus, UniProt P28571) (assay: Glycine uptake inhibition assay (mGlyT-1b)). Conditions: [3H]-glycine uptake in Flp-In CHO cells transfected with mGlyT-1b cDNA.
T1 construct: host or cells: Flp-In CHO
T1 sequence (P28571 1-651 isoform P28571-2): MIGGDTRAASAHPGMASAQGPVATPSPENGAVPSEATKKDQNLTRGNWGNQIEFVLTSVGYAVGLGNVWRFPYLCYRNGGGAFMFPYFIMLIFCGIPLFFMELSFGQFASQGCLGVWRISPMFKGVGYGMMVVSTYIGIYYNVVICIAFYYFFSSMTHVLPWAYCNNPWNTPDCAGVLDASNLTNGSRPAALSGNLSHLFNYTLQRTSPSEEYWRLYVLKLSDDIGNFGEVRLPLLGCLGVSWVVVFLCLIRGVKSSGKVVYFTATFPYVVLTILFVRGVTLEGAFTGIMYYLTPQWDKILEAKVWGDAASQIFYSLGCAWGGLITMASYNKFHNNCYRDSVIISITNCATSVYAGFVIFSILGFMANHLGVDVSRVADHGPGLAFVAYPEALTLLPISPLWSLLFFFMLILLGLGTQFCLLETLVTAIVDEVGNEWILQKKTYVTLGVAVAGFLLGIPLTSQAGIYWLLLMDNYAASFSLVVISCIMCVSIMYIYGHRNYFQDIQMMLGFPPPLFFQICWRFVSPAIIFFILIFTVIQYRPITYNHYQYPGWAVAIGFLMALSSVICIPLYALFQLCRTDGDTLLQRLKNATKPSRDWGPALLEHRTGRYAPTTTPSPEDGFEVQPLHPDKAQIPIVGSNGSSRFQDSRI
Format: cell-based
Method: DMEM complete medium: Nutrient mixture F-12 (Gibco Life-technologies), fetal bovine serum (FBS) 5%, (Gibco life technologies), Penicillin/Streptomycinl % (Gibco life technologies), Hygromycin 0.6 mg/ml (Gibco life technologies), Glutamine 1 mM Gibco life technologies)
Uptake buffer (UB): 150 mM NaCl, 10 mM Hepes-Tris, pH 7.4, 1 mM CaCl2, 2.5 mM KCl, 2.5 mM MgSO4, 10 mM (+) D-glucose.
Flp-In™ CHO (Invitrogen Cat no R758-07) cells stably transfected with mGlyTlb cDNA.
Glycine uptake inhibition assay (mGlyT-1b)
On day 1 mammalian cells, (Flp-In™ CHO), transfected with mGlyT-1b cDNA, were plated at the density of 40,000 cells/well in complete F-12 medium, without hygromycin in 96-well culture plates. On day 2, the medium was aspirated and the cells were washed twice with uptake buffer (UB). The cells were then incubated for 20 min at 22° C. with either (i) no potential competitor, (ii) 10 mM non-radioactive glycine, (iii) a concentration of a potential inhibitor. A range of concentrations of the potential inhibitor was used to generate data for calculating the concentration of inhibitor resulting in 50% of the effect (e.g. IC50, the concentration of the competitor inhibiting glycine uptake of 50%). A solution was then immediately added containing [^3H]-glycine 60 nM (11-16 Ci/mmol) and 25 μM non-radioactive glycine. The plates were incubated with gentle shaking and the reaction was stopped by aspiration of the mixture and washing (three times) with ice-cold UB. The cells were lysed with scintillation liquid, shaken 3 hours and the radioactivity in the cells was counted using a scintillation counter.

Row | Compound | IC50
1 | COc1cc(C(F)(F)F)cc(SC)c1C(=O)N[C@]1(c2ccccc2)CCCN2CCCC[C@@H]21 (racemic) [Example 1, 2-Methoxy-6-methylsulfanyl-N-((1S,R; 9aR,S)-1-phenyl-octahydro-quinolizin-1-yl)-4-trifluoromethyl-benzamide] | 80 nM
2 | COc1cc(C(F)(F)F)cc(SC)c1C(=O)N[C@]1(c2ccccc2)CCCN2CCC[C@@H]21 (racemic) [Example 2, 2-Methoxy-6-methylsulfanyl-N-((8S,R; 8aR,S)-8-phenyl-octahydro-indolizin-8-yl)-4-trifluoromethyl-benzamide] | 25 nM
3 | COc1cc(C(F)(F)F)cc(SC)c1C(=O)NC1(c2ccccc2)CCC2CCCN2C1 (single isomer, unassigned; diastereoisomer 2) [Example 4, 2-Methoxy-6-methylsulfanyl-N-(6-phenyl-octahydro-indolizin-6-yl)-4-trifluoromethyl-benzamide (diastereoisomer 2)] | 13 nM

More lines, in order of falling IC50, values ahead:

Row | IC50 | Compound
4 | 28 nM | COc1cc(C(F)(F)F)cc(SC)c1C(=O)NC1(c2ccccc2)CCC2CCCCN2C1 (centres unmarked) [Example 5, 2-Methoxy-6-methylsulfanyl-N-(3-phenyl-octahydro-quinolizin-3-yl)-4-trifluoromethyl-benzamide]
5 | 17 nM | COc1cc(C(F)(F)F)cc(SC)c1C(=O)NC1(c2ccccc2)CCC2CCCN2C1 (single isomer, unassigned; diastereoisomer 1) [Example 3, 2-Methoxy-6-methylsulfanyl-N-(6-phenyl-octahydro-indolizin-6-yl)-4-trifluoromethyl-benzamide (diastereoisomer 1)]
